Experimental data taken from paper PMC3364214, “Role of Operon aaoSo-mutT in Antioxidant Defense in Streptococcus oligofermentans” (PLoS ONE, 2012).

Biological target: T1, MutT (Streptococcus cristatus, UniProt A0ABN4B3E2)
T1 construct: gene I872_01330; mutT (453 bp fragment) in NcoI-XhoI of pET-28a, His6-tag fusion (C-terminal by the primers), E. coli BL21(DE3) pLysS, Histrap purified; tag removal not mentioned
T1 sequence (A0ABN4B3E2 1-151): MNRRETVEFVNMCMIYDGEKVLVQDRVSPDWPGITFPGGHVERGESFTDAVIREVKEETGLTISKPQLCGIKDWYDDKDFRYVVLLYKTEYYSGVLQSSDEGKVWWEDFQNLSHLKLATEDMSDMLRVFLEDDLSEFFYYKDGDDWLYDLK
Experiment: HPLC of 8-oxo-dGTP degradation (UV […] nm)
Format: biochemical
Conditions: 100 uM substrate, 100 nM MutT, 5 mM MgCl2, 100 mM Tris-HCl pH 9.0, 5% glycerol, 37 C, 20 min

Nc1nc2c([nH]c(=O)n2[C@H]2C[C@H](O)[C@@H](COP(=O)(O)OP(=O)(O)OP(=O)(O)O)O2)c(=O)[nH]1 [8-oxo-dGTP]
HPLC of 8-oxo-dGTP degradation (UV 293 nm): reduction of 8-oxo-dGTP levels was detected in the reaction mixture by HPLC
